Results on 28 compounds are retold here after patent US6605628B1, “Method of using 5-(arysulfonyl)-, 5-(arylsulfanyl)-and 5-(arylsulfanyl)thiazolidine-2,4-diones for inhibition of farnesyl-protein transferase” (Wyeth Holdings Corporation, priority 2001, dated 2003).

This experiment addresses FPTase (Homo sapiens, UniProt P49354+P49356). The experiment can be described thus: in vitro FTase Inhibition Assay, H-Ras used as substrate for farnesylation. The class given is biochemical. Here is the method: Enzyme test procedure: FPTase inhibition in vitro assay was performed according to James, G. L., Brown, M. S., and Goldstein, J. L., Methods in Enzymology, 1995, 255, 38-46; and Garcia, M. A., et al., J. Biol. Chem., 1993, 268, 18415-18420.
Materials—Purified FPTase (Moomaw, J. F. and Casey, P. J., J. Biol. Chem., 1992, 267, 17438-17443), purified His6-Ras, inhibitor compounds at 10 mg/ml or 10 mM in 100% DMSO, ^3H-FPP (50,000 dpm/pmol) Amersham, TCA/SDS (6%/2%), TCA (6%), Glass fiber filters ([…]), vacuum manifold or 96 well filtration plates.
Methods—1. Dilute FPTase inhibitors from stock solutions to 2.5× in 2.5% DMSO, 10 mM DTT, 0.5% octyl-B-glucoside. 2. Solution #1 is added to FPTase reaction in a volume of […]. 3. Standard reaction mix, […], contains 50 mM Tris (7.5), 10 mM ZnCl2, 3 mM MgCl2, 20 mM KCl, 5 mM DTT, 0.2% octyl-B-glucoside, 1% DMSO, […] His6-Ras, 10 ng FPTase, and various concentrations of FPTase inhibitors. 4. Incubate for 30-90 min at 25° C. 5. Stop reactions with TCA/SDS (6%/2%), hold at 4° C. for 45-60 min. 6. Filter by manifold or 96 well plate, wash filter 3-5× with TCA (6%). 7. Add scintillant to filters, measure ^3H-FPP incorporation into Ras protein.
Analysis of Results—Percent inhibition by test compounds is determined by the following:
(cpm from precipitated Ras with test compounds)−(background cpm)×100=% inhibition.
(cpm from precipitated Ras without test compounds)−(background cpm)

[1] abbreviates: Table II, read-out: IC50 (wi. H-Ras).

Molecules are shown by their SMILES. Like-named read-outs stand apart in the source and are kept apart here.

For orientation: IC50 means the midpoint of a concentration-inhibition curve. As for `Cc1ccc(S(=O)(=O)C2(CC#Cc3ccc(C(F)(F)F)cc3)SC(=O)NC2=O)cc1` (stereo not shown) [Example 251, 5-(Toluene-4-sulfonyl)-5-[3-(4-trifluoromethyl-phenyl)-prop-2-ynyl]-thiazolidine-2,4-dione], under setting [1], the concentration for half-maximal inhibition (IC50) was determined as 150 nM. With `Cc1ccc(S(=O)(=O)C2(CC#Cc3ccc(F)cc3)SC(=O)NC2=O)cc1` (stereo not shown) [Example 246, 5-[3-(4-Fluoro-phenyl)-prop-2-ynyl]-5-(toluene-4-sulfonyl)-thiazolidine-2,4-dione], under setting [1], the IC50 came out at 300 nM. Same read-out and setting: the value for `Cc1ccc(C#CCC2(S(=O)(=O)c3ccc(C)cc3)SC(=O)NC2=O)cc1` (stereo not shown) [Example 247, 5-(Toluene-4-sulfonyl)-5-[3-(p-tolyl)-prop-2-ynyl]-thiazolidine-2,4-dione] was 300 nM; that for `O=C1NC(=O)C(CC#Cc2ccc(Cl)cc2)(S(=O)(=O)c2ccc(Cl)cc2)S1` (stereo not shown) [Example 244, 5-(4-Chloro-benzenesulfonyl)-5-[3-(4-chloro-phenyl)-prop-2-ynyl]-thiazolidine-2,4-dione] was 100 nM. Same read-out and setting: the value for `O=C1NC(=O)C(CC#Cc2cc(C(F)(F)F)cc(C(F)(F)F)c2)S1` (stereo not shown) [Example 266, 5-[3-(3,5-bis-Trifluoromethyl-phenyl)-prop-2-ynyl]-thiazolidine-2,4-dione] was 500 nM.

As to `Cc1ccc(SC2(CC#Cc3ccc(Cl)cc3)SC(=O)NC2=O)cc1` (stereo not shown) [Example 267, 5-[3-(4-Chloro-phenyl)-prop-2-ynyl]-5-(p-tolylsulfanyl)-thiazolidine-2,4-dione], the IC50 under setting [1] came out at 5000 nM. Still for that read-out and setting: next, `O=C1NC(=O)C(CC#Cc2ccccc2)(S(=O)(=O)c2ccc(Br)cc2)S1` (stereo not shown) [Example 248, 5-(4-Bromo-benzenesulfonyl)-5-(3-phenyl-prop-2-ynyl)-thiazolidine-2,4-dione]: 450 nM. The same measure, in the same setting: next, `Cc1ccc(S(=O)(=O)C2(CC#Cc3cc(C(F)(F)F)cc(C(F)(F)F)c3)SC(=O)NC2=O)cc1` (stereo not shown) [Example 260, 5-[3-(3,5-bis-Trifluoromethyl-phenyl)-prop-2-ynyl]-5-(toluene-4-sulfonyl)-thiazolidine-2,4-dione]: 100 nM; `O=C1NC(=O)C(CC#Cc2ccc(C(F)(F)F)cc2)(S(=O)(=O)c2ccc(F)cc2)S1` (stereo not shown) [Example 264, 5-(4-Fluoro-benzenesulfonyl)-5-[3-(4-trifluoromethyl-phenyl)-prop-2-ynyl)-thiazolidine-2,4-dione]: 300 nM; `Cc1cccc(S(=O)(=O)C2(CC#Cc3ccc(Cl)cc3)SC(=O)NC2=O)c1` (stereo not shown) [Example 256, 5-[3-(4-Chloro-phenyl)-prop-2-ynyl]-5-(toluene-3-sulfonyl)-thiazolidine-2,4-dione]: 800 nM. The same measure, in the same setting: next, `O=C1NC(=O)C(CC#Cc2ccc(Cl)cc2)(S(=O)(=O)c2ccc3ccccc3n2)S1` (stereo not shown) [Example 265, 5-[3-(4-Chloro-phenyl)-prop-2-ynyl]-5-(quinoline-2-sulfonyl)-thiazolidine-2,4-dione]: 1500 nM.

For the compound `COc1ccc(S(=O)(=O)C2(CC#Cc3cccnc3)SC(=O)NC2=O)cc1` (stereo not shown) [Example 167, 5-(4-Methoxybenzenesulfonyl)-5-(3-pyridin-3-ylprop-2-ynyl)-thiazolidine-2,4-dione], the IC50 (Table I, read-out: IC50 H-Ras*) is 1500 nM. `Cc1ccc(S(=O)(=O)C2(CC#Cc3cccc(Cl)c3)SC(=O)NC2=O)cc1` (stereo not shown) [Example 257, 5-[3-(3-Chloro-phenyl)-prop-2-ynyl]-5-(toluene-4-sulfonyl)-thiazolidine-2,4-dione]: the IC50 under setting [1] is 35 nM. Same read-out and setting: next, `COc1ccc(C#CCC2(S(=O)(=O)c3ccc(C)cc3)SC(=O)NC2=O)cc1` (stereo not shown) [Example 252, 5-[3-(4-Methoxy-phenyl)-prop-2-ynyl]-5-(toluene-4-sulfonyl)-thiazolidine-2,4-dione]: 80 nM. Same read-out and setting: next, `O=C1NC(=O)C(CC#Cc2ccc(Br)cc2)(S(=O)(=O)c2ccc(Cl)cc2)S1` (stereo not shown) [Example 263, 5-[3-(4-Bromo-phenyl)-prop-2-ynyl]-5-(4-chloro-benzenesulfonyl)-thiazolidine-2,4-dione]: 150 nM; `Cc1ccc(S(=O)(=O)C2(CC#Cc3ccc(Cl)cc3)SC(=O)NC2=O)cc1` (stereo not shown) [Example 262]: 70 nM; `O=C1NC(=O)C(CC#Cc2cccc(Cl)c2)(S(=O)(=O)c2ccccc2)S1` (stereo not shown) [Example 261, 5-Benzenesulfonyl-5-[3-(3-chloro-phenyl)-prop-2-ynyl]-thiazolidine-2,4-dione]: 300 nM.

With `COc1ccc(S(=O)(=O)C2(CCCC#Cc3ccc(Cl)cc3)SC(=O)N(CCCn3ccnc3)C2=O)cc1` (stereo not shown) [Example 233, 5-[5-(4-Chlorophenyl)pent-4-ynyl]-3-(3-imidazol-1-yl-propyl)-5-(4-methoxybenzenesulfonyl)-thiazolidine-2,4-dione], the half-maximal inhibitory concentration (IC50) (Table I, read-out: IC50 H-Ras*) was 2900 nM. On to `O=C1NC(=O)C(CC#Cc2cc(C(F)(F)F)cc(C(F)(F)F)c2)(S(=O)(=O)c2ccccc2)S1` (stereo not shown) [Example 259, 5-Benzenesulfonyl-5-[3-(3,5-bis-trifluoromethyl-phenyl)-prop-2-ynyl]-thiazolidine-2,4-dione], for which the concentration for half-maximal inhibition (IC50) under setting [1] was found to be 150 nM. The same measure, in the same setting: the value for `O=C1NC(=O)C(CC#Cc2ccccc2)(S(=O)(=O)c2ccccc2)S1` (stereo not shown) [Example 241, 5-Benzenesulfonyl-5-[3-phenyl-prop-2-ynyl]-thiazolidine-2,4-dione] was 1500 nM; that for `O=C1NC(=O)C(CC#Cc2ccc(C(F)(F)F)cc2)(S(=O)(=O)c2ccccc2)S1` (stereo not shown) [Example 254, 5-Benzenesulfonyl-5-[3-(4-trifluoromethyl-phenyl)-prop-2-ynyl]-thiazolidine-2,4-dione] was 500 nM; that for `Cc1ccc(S(=O)(=O)C2(CC#Cc3ccc(Br)cc3)SC(=O)NC2=O)cc1` (stereo not shown) [Example 253, 5-[3-(4-Bromo-phenyl)-prop-2-ynyl]-5-(toluene-4-sulfonyl)-thiazolidine-2,4-dione] was 90 nM. Still for that read-out and setting: the value for `O=C1NC(=O)C(CC#Cc2ccc(Cl)cc2)(S(=O)(=O)c2ccccc2)S1` (stereo not shown) [Example 240, 5-Benzenesulfonyl-5-[3-(4-chloro-phenyl)-prop-2-ynyl]-thiazolidine-2,4-dione] was 500 nM; that for `COc1ccc(S(=O)(=O)C2(CC#Cc3ccc(Cl)cc3)SC(=O)NC2=O)cc1` (stereo not shown) [Example 249, 5-[3-(4-Chloro-phenyl)-prop-2-ynyl]-5-(4-methoxy-benzenesulfonyl)-thiazolidine-2,4-dione] was 400 nM; that for `O=C1NC(=O)C(CC#Cc2ccccc2)(S(=O)(=O)c2ccc3ccccc3c2)S1` (stereo not shown) [Example 250, 5-(Naphthalene-2-sulfonyl)-5-(3-phenyl-prop-2-ynyl)-thiazolidine-2,4-dione] was 1500 nM. Still for that read-out and setting: next, `O=C1NC(=O)C(CC#Cc2ccccc2)(S(=O)(=O)c2ccc(Cl)cc2)S1` (stereo not shown) [Example 242, 5-(4-Chloro-benzenesulfonyl)-5-(3-phenyl-prop-2-ynyl)-thiazolidine-2,4-dione]: 1000 nM.

As for `Cc1ccc(S(=O)(=O)C2(CC#Cc3cccs3)SC(=O)NC2=O)cc1` (stereo not shown) [Example 168, 5-(3-Thiophen-2-yl-prop-2-ynyl)-5-(toluene-4-sulfonyl)-thiazolidine-2,4-dione], the IC50 (Table I, read-out: IC50 H-Ras*) was 280 nM. The same measure, in the same setting: next, `O=C1NC(=O)C(CCCC#Cc2ccc(Cl)cc2)(Sc2ccc(F)cc2)S1` (stereo not shown) [Example 96, 5-[5-(4-Chlorophenyl)pent-4-ynyl]-5-(4-fluorophenylsulfanyl)-thiazolidine-2,4-dione]: 700 nM.
